From patent US12365643B2, “Phenoxy carboxylic acid compounds and medical uses thereof” (QINGDAO RISING BIOTECHNOLOGY CO., LTD, priority 2018, dated 2025)

Legend:
db/db mice = assay: Diabetes mellitus model (db/db mice); format: in vivo, mouse; details: for blood glucose level: 50 mg/kg intragastric once a day for 28 days (FIG. 7); for AHDL (high density lipoprotein) / ALDL (low density lipoprotein) / ALT / AST / BUN / CHOL (total cholesterol) / CK / CREA / TGL (triglycerides) / fat content in the liver (Oil red O and H.E. staining): intragastric once a day for 28 days; for AHDL (high density lipoprotein) / ALDL (low density lipoprotein) / ALT / AST / BUN / CHOL (total cholesterol) / CK / CREA / TGL (triglycerides): 50 mg/kg (pioglitazone 6 mg/kg); for fat content in the liver (Oil red O and H.E. staining): 50 mg/kg (pioglitazone 6 mg/kg) (FIGS. 8A-8B)
Description: Animal model: C57BL/KsJ-leprdb/leprdb diabetic (db/db) mice were widely used as animal models of type 2 diabetes mellitus, in which spontaneous mutations of leptin receptor (Leptin receptor, Lepr) caused extreme obesity, polyphagia, diabetes and polyuria. In this experiment, db/db mice (purchased from the Department of Animals, Health Science Center of Peking University) were selected. In the experiment, 28 db/db mice were used, and the animals with blood glucose of about 7-13 mmol/L were selected. […] Intragastric administration was adopted with an administration volume of 10 ml/kg. […] The administration was performed once a day for 28 consecutive days. From the day of oral administration, the physiological changes of the animals were observed every day. Blood glucose was measured every 3 days (Roche blood glucose meter) and blood glucose difference (Δ) was calculated by the following formula: blood glucose difference (Δ)=the blood glucose of the day—the initial blood glucose (the initial blood glucose difference was zero). For mice in each experimental group, blood was collected, serum was separated, and liver was taken for wet-weight measurement after necropsy; liver tissue was taken and fixed for pathological examination, H.E. staining and oil red O staining (Wuhan Zishan Biotechnology Co., Ltd.) were performed, and mouse liver lesions were observed under light microscope; routine examination of blood was performed by Animal Laboratory Department, Health Science Center of Peking University to measure the following indexes: white blood cell count (WBC), red blood cell count (RBC), lymphocyte count (LY), platelet (PLT) and so on; biochemical laboratory examination of blood was performed by Laboratory Medicine, Third Hospital, Peking University to measure the following indexes: triglycerides (TG), total cholesterol (T-CHO), high-density lipoprotein cholesterol (HDL-C), low-density lipoprotein cholesterol (LDL-C) and so on.

phosphorylated IRS-1 = assay: Phosphorylated IRS-1 level by Western blotting in HepG2; format: cell-based, human; details: 1 μM, 24 hours, HepG2, Western blotting (FIG. 6C)
Description: (§1) Carnitine palmitoyltransferase (CPT1α) is a rate-limiting enzyme of fatty acid oxidation. When the body or tissues are lacking in energy, CPT1α catalyzes the entry of fatty acids into mitochondria for […], and at the same time, CPT1α is also involved in the regulation of fatty acid-induced insulin resistance and inflammation. Protein kinase B/glycogen synthase kinase 3β (AKT/GSK3β) signaling pathway and insulin receptor substrate 1 (IRS-1) are key signaling pathways that regulate glucose metabolism in response to insulin signal. Therefore, by determining the effects of compounds on the CPT1α protein level and the AKT, GSK3β and IRS-1 protein phosphorylation levels, it is possible to evaluate the regulatory effects of the compounds on glycolipid metabolism.
(§2) After human liver cancer cells HepG2 were incubated with the compound of the present application or the control drug at 1 μM for 24 hours, the CPT1α protein level and the AKT, GSK3β and IRS-1 phosphorylated protein levels in the cells were determined by Western blotting; after gray-scale scanning by using Image J15.0.1, normalization was performed by using β-tubulin protein level as internal control, and the quantitative analysis results were shown in FIG. 6.

[1] = Metabolism of BJMU-2 by the liver
phosphorylated GSK3β = assay: Phosphorylated GSK3β level by Western blotting in HepG2; format: cell-based, human; details: 1 μM, 24 hours, HepG2, Western blotting (FIG. 6B)
Description: as §1, §2

[2] = 50 mg/kg intragastric once a day for 28 days

Compound | total cholesterol content in blood (in words) (db/db mice; [2]) | blood glucose level (db/db mice) | AHDL (high density lipoprotein) (db/db mice) [mmol/L] | ALDL (low density lipoprotein) (db/db mice) [mmol/L] | ALT (db/db mice) | AST (db/db mice) [U/L] | BUN (db/db mice) [mmol/L] | CHOL (total cholesterol) (db/db mice) [mmol/L] | CK (db/db mice) [U/L] | CREA (db/db mice) [µmol/L] | TGL (triglycerides) (db/db mice) [mmol/L] | fat content in the liver (Oil red O and H.E. staining) (db/db mice) | phosphorylation level of IRS-1 (phosphorylated IRS-1) | activity of lowering triglycerides (in words) (db/db mice; [2]) | metabolism by the liver [1] | phosphorylation level of GSK3β (phosphorylated GSK3β)
Cc1ccc(C)c(OCCCC(C)(C)C(=O)O)c1 [gemfibrozil, Gemfibrozil, reference compound] | did not show the activity of lowering total cholesterol in blood | did not show obvious hypoglycemic activity | 1.64 ± 0.28 | 0.35 ± 0.02 | 172.25 ± 123^ U/L | 225 ± 132.19 | 9.56 ± 1.57 | 3.37 ± 0.36 | 1037 ± 523.17 | 16 ± 10.46 | 2.09 ± 0.95 | neither gemfibrozil nor pioglitazone showed the above activity | – | – | – | –
Cc1cc(OCCCC(C)(C)C(=O)O)c(C)cc1F [BJMU-3, 5-(4-fluoro-2,5-dimethylphenoxy)-2,2-dimethylpentanoic acid] | – | – | – | – | – | – | – | – | – | – | – | – | significantly increased the phosphorylation level of IRS-1 | – | – | –
Cc1cc(OCCCC(C)(C)C(=O)O)c(C)cc1Br [BJMU-2, 5-(4-bromo-2,5-dimethylphenoxy)-2,2-dimethylpentanoic acid] | could reduce the total cholesterol content in the blood | could significantly reduce the blood glucose level | 1.59 ± 0.13 | 0.33 ± 0.09 | 187.75 ± 62.07 U/L | 210.75 ± 56.97 | 7.23 ± 1.19 | 3.06 ± 0.63 | 1790.75 ± 388.38 | 10.13 ± 5.25 | 1.44 ± 0.42 | could significantly reduce the fat content in the liver | significantly increased the phosphorylation level of IRS-1 | had an activity of lowering triglycerides better than gemfibrozil | could be metabolized by the liver to produce metabolites BJMU-415 and 502 | significantly increased the phosphorylation level of GSK3β
